Data from US9228999B2, “Method for screening active agents that stimulate the expression of CERT to improve the skin's barrier function” (CHANEL PARFUMS BEAUTE, priority 2009, dated 2016).

System: CERT mRNA
Test: Test for screening active agents by real-time RT-PCR: expression of CERT mRNA in keratinocytes
Format: cell-based
Details: normal human keratinocytes (neonatal foreskin), 24 hours incubation, concentration 0.0005%, number of times of increase vs untreated (1.0), normalized to RPLPO
Description: The effect of two active agents on the expression of the mRNA of CERT was evaluated in keratinocytes. Keratinocytes derived from neonatal foreskins (Cascade Biologics/Invitrogen, Portland, Oreg., USA) are inoculated in 6-well plates and cultured in keratinocyte growth culture medium (Epilife, Invitrogen), i.e. a modified culture medium supplemented with EDGS. After culturing for 24 hours in an incubator at 37° C., the 70%-80% confluent cells are washed with PBS buffer (Invitrogen) and incubated with basic medium (Epilife, Invitrogen) containing the active agent to be tested, for 24 hours and in triplicate, at increasing concentrations. After studying the cytotoxicity of the active agent, its activity is evaluated. To quantify the expression of CERT messenger RNA in a treated sample relative to an untreated sample, first the RNA is isolated using the RNeasy reagent kit (Qiagen, CA, USA) and then quantified using the QuantIt kit (Invitrogen). Reverse transcription is performed using the gene Amp RNA PCR kit (Applied Biosystems) according to the manufacturer's recommendations. The real-time PCR measurement is performed using the iCYCLER IQ machine (Bio-Rad, CA, USA) with Taqman probes. […] The relative quantification of the expression of the target gene is performed using the Pfaffl mathematical model (Pfaffl, MW, Nucleic Acids Res. 29(9), p. […], 2001). […]

| SMILES | Stimulation of CERT mRNA |
| --- | --- |
| Oc1ccc(C=Cc2cc(O)cc(O)c2)cc1 [Resveratrol] | 2.4 |
| O=C(O)CCCC[C@@H]1CCSS1 (racemic) [Lipoic acid] | 2.0 |
